Paper PMC6743335 (Journal of the American Chemical Society, 2018)

Biological target: T1, human ATR (adenosyltransferase) (Homo sapiens, UniProt Q96EY8)
T1 sequence (Q96EY8 33-250 limits assumed): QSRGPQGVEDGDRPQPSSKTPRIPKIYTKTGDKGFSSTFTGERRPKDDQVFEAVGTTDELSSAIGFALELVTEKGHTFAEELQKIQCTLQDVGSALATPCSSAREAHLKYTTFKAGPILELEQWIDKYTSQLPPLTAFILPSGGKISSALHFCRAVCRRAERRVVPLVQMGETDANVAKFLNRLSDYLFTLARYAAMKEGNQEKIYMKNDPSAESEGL
Experiment: binding, method in supplement
Conditions: ATP in the third site of the crystal with Mg

Nc1ncnc2c1ncn2[C@@H]1O[C@H](COP(=O)(O)OP(=O)(O)OP(=O)(O)O)[C@@H](O)[C@H]1O [ATP]
Kd: Electron density for AdoCbl was observed in two active sites
